According to patent US8372176B2, “Metal complexes comprising a ligand derived from 2-aryl-2-hydroxyacetic acid and a divalent or trivalent metal cation, and their use” (Clariant Specialty Fine Chemicals (France), priority 2006, dated 2013):
Each block holds one compound with its values, some of them ahead of it.

Experiments:
[1] = Dissolution of FeCl3 with ligand in aqueous phase at neutral or basic pH; Fe in filtrate by ICP-OES; format: physicochemical
Procedure: (§1) The invention is illustrated without implied limitation by the following examples, in which the amounts of metals in solution were measured by ICP-OES (Inductively Coupled Plasma-Optical Emission Spectroscopy).
(§2) In the examples which follow, the term “theoretical % by weight of metal in solution” is understood to mean the ratio, expressed as percentage, of the total weight of metal initially introduced into the reaction medium to the weight of the filtrate recovered and analysed.
(§3) 4.92 g (0.025 mol) of OHMNa are dissolved in 19.17 ml of water. 20.27 g of an aqueous solution comprising 6.76 g of FeCl3 hexahydrate (0.025 mol) are added over 15 min while maintaining the temperature of the reaction medium at approximately 20° C. The pH of the solution is adjusted to 7 by addition of a 50% by weight aqueous sodium hydroxide solution (5.87 g). The mixture is subsequently stirred at ambient temperature for 24 h. After filtering and washing with water, 59.9 g of a solution with a dark brown-red colour are recovered.
8.11 g of FeCl3 hexahydrate are dissolved in 12 ml of water. The pH is adjusted to 7 by addition of a 50% by weight aqueous sodium hydroxide solution. After filtering and washing with water, less than 10 ppm of Fe are measured in the filtrate.
2.05 g (0.01 mol) of 5-chloro-2-hydroxymandelic acid are suspended in 15 ml of water. 0.8 g of 50% by weight sodium hydroxide solution (0.01 mol) is added in order to obtain a solution. 17.7 g of an aqueous solution comprising 2.7 g of FeCl3 hexahydrate (0.01 mol) are added over 15 min while maintaining the temperature of the reaction medium at approximately 20° C. The pH of the solution is adjusted to 7 by addition of 2.4 g of a 50% by weight aqueous sodium hydroxide solution. The mixture is subsequently stirred at ambient temperature for 24 h. After filtering, 35.1 g of a solution with a dark brown-red colour are recovered.
The procedure of Example 1 or 2 is repeated but using, according to the invention, the ligands B, C, D and E of formula (I), the structures of which are described in Table 1 below, and varying the ligand/metal molar ratios, if appropriate.
The procedure of Example 2 is repeated by using the compounds G, H, I and J as ligands, the structures of which are described in Table 4 below, and varying the ligand/metal molar ratios, if necessary.
The procedure described in Example 1 is repeated but adjusting the pH of the solution to 6, 7, 9, 10 and 12.
A solution composed of 40 g of water and of 12.97 g of FeCl3 hexahydrate (0.048 mol) is added over 15 min to 43.5 g of an aqueous solution comprising 10.2 g of OHM.2Na (0.048 mol) while maintaining the temperature of the reaction medium at approximately 20° C. The pH of the solution is adjusted to 7 by addition of a 50% by weight aqueous sodium hydroxide solution (5.1 g). The mixture is subsequently stirred at ambient temperature for 5 weeks without specific protection with regard to light. After filtering, 80 g of a solution with a dark brown-red colour are recovered.
1.98 g (0.01 mol) of OHMNa are dissolved in 8 ml of water.
12.7 g of an aqueous solution comprising 2.7 g of FeCl3 hexahydrate (0.01 mol) are added over 15 min while maintaining the temperature of the reaction medium at approximately 20° C. The pH of the solution is adjusted to 7 by addition of 2.3 g of a 50% by weight aqueous sodium hydroxide solution. A suspension of 1.0 g (0.01 mol) of CaCO3 in 15 g of water is subsequently added. A few drops of 37% HCl are added to adjust the pH to 7. The mixture is subsequently stirred at ambient temperature for 24 hours. After filtering, 35.0 g of a solution with a dark brown-red colour are recovered.

[2] = Dissolution of Mg(II) cations with OHM.2Na at pH 12; format: physicochemical; details: 0.05 mol OHM.2Na
Procedure: (§4) To an aqueous solution (60 g) containing 0.05 mol of OHM.2Na, are added 9.9 g of an aqueous solution containing 0.025 mole of magnesium chloride (MgCl2). The pH is set at 12 with 1 g of an aqueous solution of HCl 1N. […] Without the OHM.2Na, the magnesium precipitate at pH 12 as a white solid (Mg(OH)2).
as §4, with “added 19.8” for “added 9.9”, “containing 0.05” for “containing 0.025”, “with 2.6” for “with 1”, “of NaOH 30%.” for “of HCl 1N.”

[3] = Dissolution of Al(III) cations with OHMNa; metal in filtrate by ICP-OES; format: physicochemical
Procedure: as §1, §2, §3
(§5) The procedure of Example 1 is repeated but substituting FeCl3 by AlCl3, CrCl3.6H2O and Cu(OAc)2.H2O respectively.

[4] = Dissolution of Cu(II) cations with OHMNa; metal in filtrate by ICP-OES; format: physicochemical
Procedure: as §1, §2, §3, §5

[5] = Dissolution of Cr(III) cations with OHMNa; metal in filtrate by ICP-OES; format: physicochemical
Procedure: as §1, §2, §3, §5

[6] = commercial chelates, background statement; cited from earlier work
[7] = Iron content of the dried powder by ICP-OES; format: physicochemical; details: ICP-OES measurement on powder
Procedure: as §1
The dark brown-red solution obtained in Example 1 is concentrated by distillation of water. The residue is dried in an oven at 50° C. for 48 h. A red-brown powder is obtained which comprises 12% by weight of iron by ICP-OES measurement.
A measurement on a powder formed of [Fe(o,o-EDDHA)Na] chelate available commercially gives only 7.8% by weight of iron.

[8] = background statement, on average; cited from earlier work
[9] = pH 7, stirred 24 h at ambient temperature, filtrate
[10] = pH 7, total Fe introduced / weight of filtrate
[11] = Table 6, comparative ligands, pH 7
[12] = Table 6, pH 7, ligand/iron molar ratio of 2/1

Structure (SMILES): O=C(O)C(O)c1cc(Cl)ccc1O (stereo not shown) [5-chloro-2-hydroxymandelic acid]
% by weight of Fe in solution measured [1, 9]: 1.3 % by weight
Theoretical % by weight of Fe in solution [1, 10]: 1.59 % by weight

Structure (SMILES): O=C(O)C(O)c1cc(F)ccc1O (stereo not shown) [Example 6]
% by weight measured (Fe in solution) ([1]; Table 3, ligands B-E, pH 7): 1.4 % by weight
Theoretical % by weight of Fe in solution ([1]; Table 3, ligands B-E, pH 7): 1.46 % by weight

Structure (SMILES): O=C([O-])C(O)c1ccccc1[O-].[Na+].[Na+] (stereo not shown) [OHM.2Na, disodium salt of 2-(2-hydroxyphenyl)-2-hydroxyacetic acid]
state of the solution after 24 hours under stirring ([2]; 0.025 mole MgCl2): still homogeneous, without any solid
state of the solution after 24 hours under stirring ([2]; 0.05 mole MgCl2): still homogeneous, without any solid
Theoretical % by weight of Fe in solution ([1]; pH 7, 5 weeks stirring): 3.35 % by weight
% by weight of Fe in solution measured ([1]; pH 7, stirred 5 weeks at ambient temperature without protection from light): 3.2 % by weight

Structure (SMILES): O=C([O-])C(O)c1ccccc1O.[Na+] (stereo not shown) [OHMNa, sodium salt of 2-(2-hydroxyphenyl)-2-hydroxyacetic acid]
% by weight measured (Fe in solution) ([1]; OHMNa, pH 6): 1.7 % by weight
Theoretical % by weight of Fe in solution ([1]; OHMNa, pH 6): 2.18 % by weight
% by weight measured (Fe in solution) ([1]; OHMNa, pH 7): 2.3 % by weight
Theoretical % by weight of Fe in solution ([1]; OHMNa, pH 7): 2.33 % by weight
% by weight measured (Fe in solution) ([1]; OHMNa, pH 9): 1.9 % by weight
Theoretical % by weight of Fe in solution ([1]; OHMNa, pH 9): 1.96 % by weight
% by weight measured (Fe in solution) ([1]; OHMNa, pH 10): 2.7 % by weight
Theoretical % by weight of Fe in solution ([1]; OHMNa, pH 10): 2.80 % by weight
% by weight measured (Fe in solution) ([1]; OHMNa, pH 12): 1.9 % by weight
Theoretical % by weight of Fe in solution ([1]; OHMNa, pH 12): 1.92 % by weight
Theoretical % by weight of Fe in solution ([1]; pH 7, in the presence of CaCO3): 1.59 % by weight
% by weight of Fe in solution measured ([1]; pH 7, in the presence of CaCO3 (0.01 mol), 24 hours): 1.4 % by weight
% by weight of Fe in solution measured [1, 9]: 2.3 % by weight
Theoretical % by weight of Fe in solution [1, 10]: 2.33 % by weight
Theoretical % by weight of metal in solution ([3]; pH 7): 1 % by weight
% by weight measured (metal in solution) ([3]; pH 7, 24 h): 1 % by weight
Theoretical % by weight of metal in solution ([4]; pH 7): 1.43 % by weight
% by weight measured (metal in solution) ([4]; pH 7, 24 h): 1.40 % by weight
Theoretical % by weight of metal in solution ([5]; pH 7): 1.83 % by weight
% by weight measured (metal in solution) ([5]; pH 7, 24 h): 1.40 % by weight

Structure (SMILES): O=C(O)C(NCCNC(C(=O)O)c1ccccc1O)c1ccccc1[O-].[Fe].[Na+] (stereo not shown) [[Fe(o,o-EDDHA)Na]]
solubility in water [6]: 150-300 g/l of water
% by weight of iron in the powder [7]: 7.8 % by weight
level of iron of commercial chelates [8]: ~6 % by weight

Structure (SMILES): O.O.O.O.O.O.[Cl-].[Cl-].[Cl-].[Fe+3] [compound 1, FeCl3 hexahydrate, reference compound]
Fe measured in the filtrate ([1]; FeCl3 hexahydrate without ligand, pH 7): less than 10 ppm

The next lines start with results.

% by weight measured (Fe in solution) ([1]; Table 3, ligands B-E, pH 7): 1.1 % by weight
Theoretical % by weight of Fe in solution ([1]; Table 3, ligands B-E, pH 7): 1.47 % by weight
Structure (SMILES): O=C([O-])C(O)c1ccc(O)cc1.[Na+] (stereo not shown) [Example 3]

% by weight measured (Fe in solution) ([1]; Table 3, ligands B-E, pH 7): 1.5 % by weight
Theoretical % by weight of Fe in solution ([1]; Table 3, ligands B-E, pH 7): 1.83 % by weight
Structure (SMILES): CCOc1cc(C(O)C(=O)O)ccc1O (stereo not shown) [Example 4]

% by weight measured (Fe in solution) ([1]; Table 3, ligands B-E, pH 7): 1.2 % by weight
Theoretical % by weight of Fe in solution ([1]; Table 3, ligands B-E, pH 7): 1.49 % by weight
Structure (SMILES): O=C(O)C(O)c1ccc(O)c(O)c1 (stereo not shown) [Example 5]

% by weight measured (Fe in solution) [1, 11]: <0.0025 % by weight
Theoretical % by weight of Fe in solution [1, 11]: 2.88 % by weight
% by weight measured (Fe in solution) [1, 12]: 0.01 % by weight
Theoretical % by weight of Fe in solution [1, 12]: 1.67 % by weight
Structure (SMILES): O=C(O)Cc1ccccc1O [compound 2, reference compound]
dissolution of iron in aqueous solution at pH 7 (in words) ([1]; pH 7): do not make possible or make possible only to a very slight extent the dissolution of iron

% by weight measured (Fe in solution) [1, 11]: 0.5 % by weight
Theoretical % by weight of Fe in solution [1, 11]: 4.09 % by weight
Structure (SMILES): O=C(O)C(=O)c1ccccc1O [compound 3, reference compound]
dissolution of iron in aqueous solution at pH 7 (in words) ([1]; pH 7): do not make possible or make possible only to a very slight extent the dissolution of iron

% by weight measured (Fe in solution) [1, 11]: 0.09 % by weight
Theoretical % by weight of Fe in solution [1, 11]: 2.38 % by weight
Structure (SMILES): O=C(O)C(O)c1ccccc1 (stereo not shown) [compound 4, reference compound]
dissolution of iron in aqueous solution at pH 7 (in words) ([1]; pH 7): do not make possible or make possible only to a very slight extent the dissolution of iron

% by weight measured (Fe in solution) [1, 11]: 0.01 % by weight
Theoretical % by weight of Fe in solution [1, 11]: 4.73 % by weight
Structure (SMILES): O=C(O)C(O)c1ccccc1Cl (stereo not shown) [compound 5, reference compound]
dissolution of iron in aqueous solution at pH 7 (in words) ([1]; pH 7): do not make possible or make possible only to a very slight extent the dissolution of iron
